Results as given in PubChem BioAssay (NCI).
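Values below derive from 48-hour exposures of cells grown in 96-well plates, with endpoints linearly interpolated between the two concentrations bracketing the appropriate inhibition level. GI50 marks 50% less growth. TGI: total growth inhibition.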

Assays:
Assay in all cases: DTP human tumour cell line panel, 48 h; in the data active means GI50 below about 0.43 µM; inactive means the rest
OVCAR-4 ovarian = test system: OVCAR-4 ovarian
NCI-H460 lung = test system: NCI-H460 lung
SN12C renal = test system: SN12C renal
A549 NSCLC = test system: A549 NSCLC
NCI-H23 lung = test system: NCI-H23 lung
KM12 colon = test system: KM12 colon
UACC-257 melanoma = test system: UACC-257 melanoma
A498 renal = test system: A498 renal
K-562 leukemia = test system: K-562 leukemia
HL-60(TB) leukemia = test system: HL-60(TB) leukemia
MDA-MB-435 = test system: MDA-MB-435
ACHN renal = test system: ACHN renal
TK-10 renal = test system: TK-10 renal
MOLT-4 leukemia = test system: MOLT-4 leukemia
HS 578T breast = test system: HS 578T breast
SR leukemia = test system: SR leukemia
BT-549 breast = test system: BT-549 breast
HOP-92 NSCLC = test system: HOP-92 NSCLC
786-0 renal = test system: 786-0 renal
HCT-15 colon = test system: HCT-15 colon
OVCAR-5 ovarian = test system: OVCAR-5 ovarian
HCC-2998 colon = test system: HCC-2998 colon
T-47D breast = test system: T-47D breast
OVCAR-8 ovarian = test system: OVCAR-8 ovarian
CCRF-CEM leukemia = test system: CCRF-CEM leukemia
HCT-116 colon = test system: HCT-116 colon
SNB-19 CNS = test system: SNB-19 CNS
SK-MEL-5 melanoma = test system: SK-MEL-5 melanoma
UO-31 renal = test system: UO-31 renal
IGROV1 ovarian = test system: IGROV1 ovarian
SK-OV-3 ovarian = test system: SK-OV-3 ovarian
RPMI-8226 leukemia = test system: RPMI-8226 leukemia
NCI-H522 lung = test system: NCI-H522 lung
U251 CNS = test system: U251 CNS
EKVX NSCLC = test system: EKVX NSCLC
NCI-H226 lung = test system: NCI-H226 lung
OVCAR-3 ovarian = test system: OVCAR-3 ovarian
CAKI-1 renal = test system: CAKI-1 renal
DU-145 prostate = test system: DU-145 prostate
M14 melanoma = test system: M14 melanoma
SF-539 CNS = test system: SF-539 CNS
UACC-62 melanoma = test system: UACC-62 melanoma
HOP-62 NSCLC = test system: HOP-62 NSCLC
NCI/ADR-RES ovarian = test system: NCI/ADR-RES ovarian
SW-620 colon = test system: SW-620 colon
COLO 205 colon = test system: COLO 205 colon
MDA-MB-231 breast = test system: MDA-MB-231 breast
LOX IMVI melanoma = test system: LOX IMVI melanoma
SNB-75 CNS = test system: SNB-75 CNS
MCF7 breast = test system: MCF7 breast
SF-268 CNS = test system: SF-268 CNS
SK-MEL-28 melanoma = test system: SK-MEL-28 melanoma
HT29 colon = test system: HT29 colon
SK-MEL-2 melanoma = test system: SK-MEL-2 melanoma
SF-295 CNS = test system: SF-295 CNS
PC-3 prostate = test system: PC-3 prostate

COc1ccc(Cn2cc3c(c2-c2ccccc2)CCc2cnoc2-3)cc1
501 nM: TGI (RPMI-8226 leukemia)
> 48500 nM: TGI (HOP-62 NSCLC)
504 nM: TGI (SK-MEL-5 melanoma)
2970 nM: TGI (KM12 colon)
2120 nM: TGI (NCI-H460 lung)
389 nM: TGI (HL-60(TB) leukemia)
4380 nM: TGI (MOLT-4 leukemia)
3160 nM: TGI (SR leukemia)
> 95500 nM: TGI (A498 renal)
509 nM: TGI (OVCAR-3 ovarian)
11900 nM: TGI (NCI/ADR-RES ovarian)
inactive: GI50 (OVCAR-4 ovarian) 470 nM | GI50 (SN12C renal) 545 nM | GI50 (UACC-257 melanoma) 27400 nM | GI50 (TK-10 renal) > 34500 nM | GI50 (HOP-92 NSCLC) 3310 nM | GI50 (OVCAR-5 ovarian) 505 nM | GI50 (T-47D breast) 1320 nM | GI50 (UO-31 renal) 677 nM | GI50 (NCI-H226 lung) 476 nM | GI50 (SF-268 CNS) 488 nM | GI50 (SK-MEL-28 melanoma) 33900 nM | GI50 (SK-MEL-2 melanoma) 2790 nM
2570 nM: TGI (DU-145 prostate)
905 nM: TGI (HCC-2998 colon)
1580 nM: TGI (HT29 colon)
active: GI50 (NCI-H460 lung) 250 nM | GI50 (A549 NSCLC) 293 nM | GI50 (NCI-H23 lung) 234 nM | GI50 (KM12 colon) 103 nM | GI50 (A498 renal) 209 nM | GI50 (K-562 leukemia) 40.4 nM | GI50 (HL-60(TB) leukemia) 133 nM | GI50 (MDA-MB-435) 31.1 nM | GI50 (ACHN renal) 215 nM | GI50 (MOLT-4 leukemia) 361 nM | GI50 (HS 578T breast) 183 nM | GI50 (SR leukemia) 57.4 nM | GI50 (BT-549 breast) 389 nM | GI50 (786-0 renal) 243 nM | GI50 (HCT-15 colon) 127 nM | GI50 (HCC-2998 colon) 209 nM | GI50 (OVCAR-8 ovarian) 416 nM | GI50 (CCRF-CEM leukemia) 251 nM | GI50 (HCT-116 colon) 90.4 nM | GI50 (SNB-19 CNS) 351 nM | GI50 (SK-MEL-5 melanoma) 47.9 nM | GI50 (IGROV1 ovarian) 114 nM | GI50 (SK-OV-3 ovarian) 226 nM | GI50 (RPMI-8226 leukemia) 167 nM | GI50 (NCI-H522 lung) 32.7 nM | GI50 (U251 CNS) 264 nM | GI50 (EKVX NSCLC) 425 nM | GI50 (OVCAR-3 ovarian) 137 nM | GI50 (CAKI-1 renal) 88.3 nM | GI50 (DU-145 prostate) 359 nM | GI50 (M14 melanoma) 155 nM | GI50 (SF-539 CNS) 149 nM | GI50 (UACC-62 melanoma) 46.1 nM | GI50 (HOP-62 NSCLC) 279 nM | GI50 (NCI/ADR-RES ovarian) 46.2 nM | GI50 (SW-620 colon) 113 nM | GI50 (COLO 205 colon) 125 nM | GI50 (MDA-MB-231 breast) 370 nM | GI50 (LOX IMVI melanoma) 380 nM | GI50 (SNB-75 CNS) 165 nM | GI50 (MCF7 breast) 39.1 nM | GI50 (HT29 colon) 79.7 nM | GI50 (SF-295 CNS) 65.2 nM | GI50 (PC-3 prostate) 96 nM
490 nM: TGI (SF-539 CNS)
1150 nM: TGI (NCI-H522 lung)
394 nM: TGI (COLO 205 colon)
> 100000 nM: TGI (OVCAR-4 ovarian) | TGI (SN12C renal) | TGI (A549 NSCLC) | TGI (NCI-H23 lung) | TGI (UACC-257 melanoma) | TGI (K-562 leukemia) | TGI (MDA-MB-435) | TGI (ACHN renal) | TGI (TK-10 renal) | TGI (BT-549 breast) | TGI (HOP-92 NSCLC) | TGI (HCT-15 colon) | TGI (OVCAR-5 ovarian) | TGI (T-47D breast) | TGI (OVCAR-8 ovarian) | TGI (CCRF-CEM leukemia) | TGI (SNB-19 CNS) | TGI (UO-31 renal) | TGI (IGROV1 ovarian) | TGI (SK-OV-3 ovarian) | TGI (U251 CNS) | TGI (EKVX NSCLC) | TGI (NCI-H226 lung) | TGI (CAKI-1 renal) | TGI (M14 melanoma) | TGI (UACC-62 melanoma) | TGI (SW-620 colon) | TGI (MDA-MB-231 breast) | TGI (LOX IMVI melanoma) | TGI (SNB-75 CNS) | TGI (MCF7 breast) | TGI (SF-268 CNS) | TGI (SK-MEL-28 melanoma) | TGI (SK-MEL-2 melanoma) | TGI (SF-295 CNS) | TGI (PC-3 prostate)
